Earlier results as cited in the PKSmart pharmacokinetics tables (Seal et al. 2025).

Assay: Lombardo, Berellini, Obach 2018, Drug Metab Dispos 46:1466, doi 10.1124/dmd.118.082966
Conditions: human; for MRT / Vd / clearance / half-life: in vivo, iv; for fraction unbound: plasma

Row | Structure (SMILES) | MRT | Vd | clearance | half-life | fraction unbound
1 | CC(=O)OC1=C2C(C)[C@@H](OC(=O)C(O)C(NC(=O)OC(C)(C)C)c3ccccc3)C[C@@](O)([C@@H](OC(=O)c3ccccc3)[C@@H]3[C@]4(OC(C)=O)CO[C@@H]4C[C@@H]4C[C@@]43C1=O)C2(C)C (stereo partly drawn) | 26.1 h | 17 L/kg | 10.8 mL/min/kg | 33.9 h | 
2 | CC(C)N(CC[C@H](c1ccccc1)c1cc(CO)ccc1O)C(C)C |  | 2.41 L/kg |  |  | 0.5
3 | CC1=NS(=O)(=O)c2cc(Cl)ccc2N1 | 58 h | 0.21 L/kg | 0.06 mL/min/kg | 48 h | 
4 | NC(Cc1ccc(N(CCCl)CCCl)cc1)C(=O)O (stereo not drawn) |  |  |  |  | 0.14
5 | O=C(O)C1=C(CSc2nnnn2CS(=O)(=O)O)CS[C@@H]2C(NC(=O)C(O)c3ccccc3)C(=O)N12 (stereo partly drawn) | 5.8 h | 0.14 L/kg | 0.38 mL/min/kg | 5.1 h | 0.02
6 | Oc1ccc2c(c1)[C@@]13CCCC[C@@]1(O)[C@@H](C2)N(CC1CCC1)CC3 | 5.3 h | 12 L/kg | 41 mL/min/kg | 4.8 h | 0.17
7 | CN1[C@@H]2CC[C@H]1C[C@@H](OC(=O)c1c[nH]c3ccccc13)C2 | 6.3 h | 9.7 L/kg | 26 mL/min/kg | 5.6 h | 
8 | CCCCCCCCOCCOC(=O)CN(CC(=O)O)c1ccccc1OCCOc1ccccc1N(CC(=O)O)CC(=O)OCCOCCCCCCCC | 1.3 h | 1.1 L/kg | 14 mL/min/kg | 3.5 h | 
9 | CNCC[C@H](Oc1cccc2ccccc12)c1cccs1 |  |  | 8.57 mL/min/kg | 12 h | 0.04
10 | CN(C)CCC(c1ccc(Cl)cc1)c1ccccn1 (stereo not drawn) | 22 h | 3.3 L/kg | 2.5 mL/min/kg |  | 
11 | CC1CNc2c(cccc2S(=O)(=O)NC(CCCNC(=N)N)C(=O)N2CC[C@@H](C)CC2C(=O)O)C1 (stereo partly drawn) | 0.57 h | 0.17 L/kg | 5 mL/min/kg | 0.4 h | 0.46
12 | Cn1cc(NC(=O)Nc2cc(C(=O)Nc3cc(C(=O)Nc4ccc5cc(S(=O)(=O)O)cc(S(=O)(=O)O)c5c4)n(C)c3)n(C)c2)cc1C(=O)Nc1cc(C(=O)Nc2ccc3cc(S(=O)(=O)O)cc(S(=O)(=O)O)c3c2)n(C)c1 | 960 h | 0.27 L/kg | 0.0047 mL/min/kg | 730 h | 
13 | CCCC(C)(COC(N)=O)COC(N)=O | 19 h | 0.7 L/kg | 0.6 mL/min/kg | 14 h | 1
14 | CCC[C@H](Nc1nc(-c2ccc(NC(=O)NCC)c(OC)c2)ncc1C)c1cccnc1 | 2.5 h | 3.41 L/kg | 22.2 mL/min/kg | 2.9 h | 
15 | Cc1ccc(S(=O)(=O)NC(=O)N[C@H]2[C@H]3CC[C@@](C)([C@H]2O)C3(C)C)cc1 | 13 h | 0.27 L/kg | 0.34 mL/min/kg | 9.2 h | 
16 | CN1CCN(CC(=O)N2c3ccccc3C(=O)Nc3cccnc32)CC1 | 10.3 h | 1.71 L/kg | 2.77 mL/min/kg | 11.1 h | 
17 | C[C@H]1O[C@@H](O[C@H]2[C@@H](O)C[C@H](O[C@H]3[C@@H](O)C[C@H](O[C@H]4CC[C@@]5(C)[C@H](CC[C@@H]6[C@@H]5C[C@@H](O)[C@]5(C)[C@@H](C7=CC(=O)OC7)CC[C@]65O)C4)O[C@@H]3C)O[C@@H]2C)C[C@H](O)[C@@H]1O | 40 h | 4.1 L/kg | 1.7 mL/min/kg | 38 h | 

Row | Structure (SMILES) | MRT | Vd | clearance | half-life | fraction unbound
18 | C[C@H]1O[C@@H](n2cc(F)c(=O)[nH]c2=O)[C@H](O)[C@@H]1O | 0.46 h | 0.28 L/kg | 11 mL/min/kg | 0.35 h | 
19 | CN1CCN(CCCN2c3ccccc3Sc3ccc(Cl)cc32)CC1 | 23 h | 22 L/kg | 16 mL/min/kg | 9 h | 
20 | N=C(N)NC(=O)c1cnn(-c2cccc3ncccc23)c1C1CC1 | 1.3 h | 1.7 L/kg |  | 2 h | 
21 | Nc1nc(C(=NO)C(=O)NC2C(=O)N3C(C(=O)O)=C(C=C4CCN([C@@H]5CCNC5)C4=O)CS[C@H]23)ns1 (stereo partly drawn) | 3 h | 0.27 L/kg | 1.5 mL/min/kg | 3.3 h | 0.62
22 | CC[C@H](c1ccccc1)c1c(O)c2ccccc2oc1=O | 182 h | 0.2 L/kg | 0.02 mL/min/kg | 126 h | 0.57
23 | O=C(O)c1cccc(Cc2cc(Cl)ccc2OCc2ccc(Cl)cc2F)n1 | 6.4 h | 0.77 L/kg | 2 mL/min/kg | 8.15 h | 
24 | CC(C)(C)OC(=O)NC1CCCCC/C=C\[C@@H]2C[C@@]2(C(=O)NS(=O)(=O)C2CC2)NC(=O)C2C[C@@H](OC(=O)N3Cc4cccc(F)c4C3)CN2C1=O (stereo partly drawn) | 0.32 h | 0.22 L/kg | 11.5 mL/min/kg | 1.81 h | 0.02
25 | CCCC(=O)Nc1ccc(OCC(O)CNC(C)C)c(C(C)=O)c1 (stereo not drawn) | 2.8 h | 1.7 L/kg |  | 3.5 h | 
26 | C/C=C/c1cc(OC)c(OC)cc1OC | 1.9 h | 1 L/kg | 8.8 mL/min/kg | 3.7 h | 
27 | CCN(CC)CCNC(=O)c1cc(Br)c(N)cc1OC | 4 h | 3.1 L/kg | 13 mL/min/kg | 2.9 h | 0.6
28 | C1COC(NC(C2CC2)C2CC2)=N1 | 10.6 h | 4.5 L/kg | 7.1 mL/min/kg | 8.3 h | 0.9
29 | COc1ccc(CC(C)(C)NC[C@H](O)c2cc(O)cc3c2OCC(=O)N3)cc1 | 22.2 h | 15.8 L/kg | 12.4 mL/min/kg | 22.1 h | 0.4
30 | CO[C@@]1(NC(=O)C(C(=O)O)c2ccsc2)C(=O)N2C(C(=O)O)C(C)(C)S[C@@H]21 (stereo partly drawn) | 5.2 h | 0.11 L/kg | 0.34 mL/min/kg | 4.1 h | 0.21
31 | CC[C@H]1OC(=O)C(C)[C@@H](O[C@H]2C[C@@](C)(OC)[C@@H](O)[C@H](C)O2)[C@H](C)[C@@H](O[C@@H]2O[C@H](C)C[C@H](N(C)C)[C@H]2O)[C@](C)(O)C[C@@H](C)CN(C)[C@H](C)[C@@H](O)[C@]1(C)O (stereo partly drawn) | 57 h | 33 L/kg | 10 mL/min/kg | 69 h | 
32 | NCCCNc1ccc2c(CNCCO)nn3c4c(O)ccc(O)c4c(=O)c1c23 | 11 h | 12 L/kg | 18 mL/min/kg | 32 h | 
33 | COC1C(=O)C(C)C[C@H](C)/C=C/C=C/C=C(\C)[C@@H](OC)C[C@@H]2CC[C@@H](C)[C@@](O)(O2)C(=O)C(=O)N2CCCCC2C(=O)O[C@H]([C@H](C)C[C@@H]2CC[C@@H](OC(=O)C(C)(CO)CO)[C@H](OC)C2)CC(=O)C(C)=CC(C)[C@H]1O (stereo partly drawn) | 10 h | 3 L/kg | 7.7 mL/min/kg | 18 h | 
34 | COC(=O)C[C@@](O)(CCCC(C)(C)O)C(=O)O[C@@H]1C(OC)=C[C@]23CCCN2CCc2cc4c(cc2[C@H]13)OCO4 | 10.2 h | 1.8 L/kg | 2.96 mL/min/kg | 9.8 h | 
